Reference: the NIST ThermoML archive (doi:10.1021/acs.jced.5b00919)
Numbers after ± are expanded uncertainties.

Test: activity coefficient (dimensionless); of the first substance listed, at infinite dilution; xn = mol fraction of the nth substance listed
Conditions: 101 kPa, Liquid, Chromatography, x1 = 0

SMILES	activity coefficient (338.15 K)	activity coefficient (348.15 K)	activity coefficient (358.15 K)	activity coefficient (368.15 K)
CC(C)(C)O [2-methylpropan-2-ol] + CCCC[N+](C)(CCCC)CCCC.COS(=O)(=O)[O-]	0.32 ± 0.03	0.28 ± 0.03	0.25 ± 0.03	0.23 ± 0.03
CCCCO [butan-1-ol] + CCCC[N+](C)(CCCC)CCCC.COS(=O)(=O)[O-]	0.4 ± 0.03	0.31 ± 0.03	0.25 ± 0.03	0.22 ± 0.03
CCC(C)O (centres undefined) [butan-2-ol] + CCCC[N+](C)(CCCC)CCCC.COS(=O)(=O)[O-]	0.38 ± 0.03	0.29 ± 0.03	0.24 ± 0.03	0.2 ± 0.03
CCO [ethanol] + CCCC[N+](C)(CCCC)CCCC.COS(=O)(=O)[O-]	0.24 ± 0.03	0.2 ± 0.03	0.19 ± 0.03	0.17 ± 0.03

Now from value to compound:

activity coefficient (338.15 K)	activity coefficient (348.15 K)	activity coefficient (358.15 K)	activity coefficient (368.15 K)	SMILES
0.16 ± 0.03	0.15 ± 0.03	0.14 ± 0.03	0.13 ± 0.03	CO [methanol] + CCCC[N+](C)(CCCC)CCCC.COS(=O)(=O)[O-]
0.29 ± 0.03	0.24 ± 0.03	0.21 ± 0.03	0.18 ± 0.03	CCCO [propan-1-ol] + CCCC[N+](C)(CCCC)CCCC.COS(=O)(=O)[O-]
